The species entered for assay [1] is Cavia porcellus. Description: Negative chronotropic activity on isolated guinea pig right atrium at 5x10E-5 mol/L concentration was determined. The class given is functional, Cardiac atrium.
For assay [2], the target named is T1, Voltage-gated L-type calcium channel (Rattus norvegicus, UniProt P22002+Q02485+P27732). In words: Inhibitory constant against calcium channel receptors (CCRs). Type of assay: protein assay.
The species named for assay [3] is Cavia porcellus. Description: Negative inotropic potency on isolated guinea pig left atrium. Type of assay: functional, Cardiac atrium.
For assay [4], the target named is T1, Voltage-gated L-type calcium channel. Description: Displacement of [3H]nitrendipine from calcium channel receptors (CCRs). Type of assay: protein assay. On the technique in general: In a radioligand displacement assay an active substance lowers the binding of a labelled ligand.
Assay [5] is filed under the species Cavia porcellus. In words: Calcium antagonist potency on K+ depolarized guinea pig aortic strips. Type of assay: functional. Particulars: Aorta.
The species named for assay [6] is Cavia porcellus. In words: Calcium antagonist activity on K+ depolarized guinea pig aortic strips at 10E-4 mol/L concentration was determined. As to conditions: Aorta. The class given is functional.
Assay [7] is filed under the species Cavia porcellus. In words: Negative inotropic activity on isolated guinea pig left atrium at 10E-4 mol/L concentration was determined. Type of assay: functional, Cardiac atrium.
Assay [8] has as its target T1, Voltage-gated L-type calcium channel. Description: Displacement of [3H]nitrendipine from calcium channel receptors (CCRs) from rat cortex homogenate.
Assay [9] has the same target. In words: Inhibitory constant against calcium channel receptors (CCRs) from rat cortex homogenate.

The structures appear in SMILES notation.

The Ki is a dissociation constant, usually derived from enzyme kinetics or from competition with a known ligand. What is called IC50 is the midpoint of a concentration-inhibition curve. Broadly, the inhibition is how much of the control response was suppressed. For `COc1ccc(C2Sc3ccccc3N3C(=O)CCC23)cc1` (stereo unspecified), the Decrease in the assay filed under Cavia porcellus [1] was 39%; in the assay filed under Cavia porcellus [7], 60%. Moreover, in assay [2], the Ki stood at 0.675 µM. In the assay filed under Cavia porcellus [3], this compound showed an ED50 of 1.2 uM l-1. Also, the half-inhibitory concentration (IC50) in assay [4] was found to be 1.8 µM; in the assay filed under Cavia porcellus [5], 16.6 µM. The inhibition at 100 µM in the assay listed under Cavia porcellus [6] was 32%.
Turning to `O=C1CCC2C(c3ccccc3)Sc3ccccc3N12` (stereo unspecified), the half-inhibitory concentration (IC50) in assay [8] stood at 0.00078 µM; in the assay listed under Cavia porcellus [5] it was 20 µM. In addition, the Decrease in the assay listed under Cavia porcellus [1] amounted to 20%; in the assay listed under Cavia porcellus [7], 66%. The Ki in [9] worked out at 0.00029 µM. The compound further yielded an ED50 in the assay listed under Cavia porcellus [3] of 0.23 uM l-1. Besides, the inhibition at 100 µM in the assay listed under Cavia porcellus [6] is 37%.
Regarding `CC(=O)OC1=C(c2ccccc2)Sc2ccccc2N2C(=O)CCC12` (stereo unspecified), the results for the Decrease in the assay listed under Cavia porcellus [1] and in the assay filed under Cavia porcellus [7] were 27% and 96%, respectively. Also, the Ki in [2] is 0.581 µM. This compound also showed an ED50 in the assay filed under Cavia porcellus [3] of 1.1 uM l-1. Moreover, the figures for the half-inhibitory concentration (IC50) (in assay [4]; in the assay filed under Cavia porcellus [5]) were 1.55 µM and 32.4 µM, respectively. The inhibition at 100 µM in the assay filed under Cavia porcellus [6] was 26%.
On to `COc1ccc([C@@H]2Sc3ccccc3N(CCN(C)C)C(=O)[C@@H]2OC(C)=O)cc1` [DILTIAZEM], for which the Decrease in the assay listed under Cavia porcellus [1] was 94%; in the assay listed under Cavia porcellus [7], 78%. In the assay filed under Cavia porcellus [3], the ED50 was found to be 0.79 uM l-1. Further, the half-maximal inhibitory concentration (IC50) in the assay filed under Cavia porcellus [5] was 2.6 µM. The inhibition at 100 µM in the assay filed under Cavia porcellus [6] is 88%.

These data come from ChEMBL document CHEMBL1127887, “Synthesis and in vitro cardiovascular activity of 4-aryl-2,3,3a,4-tetrahydro-1h-pyrrolo[2,1-c][1,4]benzothiazin-1-ones and 7-acetoxy-6-phenyl-7a,8,9,10-tetrahydropyrrolo [2,1,-d][1,5]benzothiazepin-10-one” (Bioorg Med Chem Lett, 1994).
